# Data reported in PMC10447463, “Data-mining unveils structure–property–activity correlation of viral infectivity enhancing self-assembling peptides” (Nature Communications, 2023).
# System: HIV-1 infection of TZM-bl cells
# Test: HIV-1 infectivity enhancement assay, β-galactosidase luminescence
# Format: cell-based
# Conditions: input.xlsx of the Pattern-Analysis script; infectivity relative to EF-C (peptide 59 = 1.00)
row,Substance,infectivity
1,KLKQLL [compound 95],0.00739
2,KNDKND [compound 52],0.0105
3,KNERIKNERI [compound 46],0.013
4,KVKGVGK [compound 43],0.0259
5,KVKVKVQV [compound 64],0.0173
6,KVKVQVV [compound 119],0.00912
7,KVKVQVVV [compound 123],0.0351
8,KWKWQW [compound 93],0.0145
9,KYKGAIIGNIK [compound 34],0.0031
10,KYKYQY [compound 88],0.01
11,MDQMDQMDQMDQMDQ [compound 39],0.00427
12,MKFKFQF [compound 58],0.0637
13,MKFM [compound 49],0.0175
14,MKIKIQINM [compound 141],0.27
15,MKIKIQINMWQ [compound 143],0.42
16,NMWQKAKAQA [compound 62],0.04
17,NMWQKFKFQF [compound 63],0.27
18,NMWQKIKIQI [compound 72],0.21
19,NMWQKIKQII [compound 71],0.0253
20,NMWQKVGTPL [compound 70],0.0247
21,PPFHPPPFHP [compound 38],0.0177
22,QCKAKAQA [compound 21],0.0253
23,QCKAKAQANM [compound 20],0.0146
24,QCKAKAQANMWQ [compound 19],0.07
25,QCKFKFQF [compound 27],0.77
26,QCKFKFQFNM [compound 26],0.51

row,Substance,infectivity
1,QCKFKFQFNMWQ [compound 25],0.62
2,QCKFKQFF [compound 14],0.0124
3,QCKFKQFFNM [compound 13],0.43
4,QCKIKIQI [compound 22],0.11
5,QCKIKIQINM [compound 18],0.40
6,QCKIKIQINMWQ [compound 60],1.04
7,QCKIKQII [compound 24],0.00647
8,QCKIKQIINM [compound 23],0.35
9,QCKIKQIINMWQ [compound 59],1.00
10,RGDCKFKFQF [compound 145],0.15
11,RGDCKIKIQINM [compound 142],0.24
12,RGDKIKIQI [compound 97],0.0157
13,RGDKIKIQIC [compound 103],0.83
14,RGDKIKIQINM [compound 104],0.41
15,RGDKIKIQINMC [compound 111],1.07
16,RGDKIKIQINMWQ [compound 105],0.76
17,RGDKIRGDKI [compound 51],0.00748
18,RGDSGGGGGGKIKIQIC [compound 127],0.87
19,RGDSKIKIQIC [compound 126],0.60
20,RGECKFKFQF [compound 32],0.33
21,RGEKIKIQINM [compound 33],0.24
22,RLRLTLC [compound 30],0.05
23,RPRGLLLGNLR [compound 36],0.05
24,SISISRRI [compound 44],0.0283
25,TKTLTKTL [compound 41],0.0213

# System: not given
# Test: not given
# Format: physicochemical
# Set-up: key to Fibril / Fibril Formation / TEM 2cat / Fibril: 1 = fibrils present; 0 non-fibrillar structures
# Conditions: TEM, 1 mg/mL, uranyl acetate stain, qualitative
# Protocol: For ATR FT–IR spectroscopy measurements, 200 µL of the respective 1 mg/mL PNF solution was lyophilized and the resulting powder used for measurement. All spectra were recorded on a Bruker Tensor 27 spectrometer with a diamond crystal as ATR element (PIKE MiracleTM, spectral resolution 2 cm^-1). Every sample was measured with 64 scans. Data were analyzed with OriginLab software and calculation of β–sheet content was conducted according to a previous report. TEM. For TEM measurements 5 µL of PNF fibrils (1 mg/mL) were placed on copper grids coated with carbon and formvar layer (300 mesh, Plano GmbH). After 10 min incubation time, the grids were staining with 4% uranyl acetate solution for 2.5 min and washed with water. Measurements were performed on a Jeol 1400 electron microscope with 120 kV acceleration voltage. CR Assay. For the determination of the amount of peptide monomer converting into nanostructures the amine reactive dye fluorescamine was used analogous to a previous reported protocol. Briefly, 100 µL of the preformed PNF solution was centrifuged in a Vivaspin 500 tube (3 kDa MWCO) to separate fibers from free peptide monomer (16200 x g, 4 °C, 45 min). The filtrate and 100 μL of the non-filtered PNF sample were lyophilized and dissolved in 30 μL DMSO. 10 μL of the filtrate and non-filtered DMSO samples were submitted in a black UV Star® 384 microliter well–plates (Greiner bio–one) and 3 μL of the fluorescamine solution (10 mg/mL, DMSO) was added to measure the fluorescence enhancement. After 20 min of incubation at RT, fluorescence was recorded on an Infinite® M1000 PRO microplate reader (Tecan) at λem = 470 nm upon excitation at λex = 365 nm with 10 nm bandwidths and multiple reads per well (3×3). Measurements were repeated in triplicates and averaged with standard deviation. All values were calculated as n-fold fluorescence enhancement (DMSO only as a reference was set to 1). The conversion rate CR was defined according to the equation Eq. (3).3 CR=100−100×fluorescenceintensityfiltrate/fluorescenceintensityoriginal[%]
# (§1) 1. Remarks on experimental parameters and bioinformatic descriptors
# 1.1 Experimental parameters
# Transmission electron microscopy (TEM) measurements. TEM measurements were used to control if peptides assemble. The assemblies were categorized in non -fibrillar structures (no assembly, […]
# grid but only amorphous aggregates. In contrast, peptides defined as fibrillar may also include amorphous structures. Amongst nonfibrillar assemblies also amorphous aggregates are summarized.
# Amorphous aggregates are defined as structures with high β-sheet content which lack long-range order, that is crystallinity or fibril formation. It is generally assumed that these structures might be
row,Substance,Fibril / Fibril Formation
1,KKWWNF,0
2,KVWWNF,0
3,RVWWNF,0

# System: not given
# Test: not given
# Format: physicochemical
# Conditions: ThT-active if fluorescence at least twice the control
# Protocol: 4 µL of 1 mg/mL peptide fibrils solution is added to a 20 µL, 50 µM ThT–solution in PBS. The mixture is incubated for 15 min at RT to allow binding of ThT dye with β–sheet rich structures. For reference PBS (4 µL) was added instead of peptide fibril solution. The samples were placed in black UV Star® 384 microliter well–plates (Greiner bio–one). Fluorescence spectra were recorded on an Infinite® M1000 PRO microplate reader (Tecan) at λem = 488 nm upon excitation at λex = 440 nm with 10 nm bandwidths and multiple reads per well (3×3). Measurements were repeated in triplicates and averaged with standard deviation. […] Zeta-Potential. For the determination of the surface charge of aggregated peptides zeta-potential measurements were conducted with a Zetasizer Nano ZS, Malvern Instruments. Unless stated otherwise the peptides were dissolved from DMSO (10 mg/mL) in PBS (pH 7.4) to concentration of 1 mg/mL and incubated for 1d at RT. Just before the measurement the 60 µL of the peptides were further diluted in 600 µL KCl (aq, 1 mM) in a 1 mL disposable folded capillary cells (DTS–1060, Zetasizer Nano series, Malvern). The zeta potential of the peptides was derived from the electrophoretic mobility based on the Smoluchowski formula. All measurements were averaged over two individually performed experiments and conducted in triplicates for each sample. Aggregate analysis. […] Furthermore, fluorescence microscopy was conducted by staining 1 µL preformed fibrils (1 mg/mL) with 9 µL ThT (50 µM). Brightfield microscopy was performed simultaneously to evaluate aggregation also for non ThT-active fibrils. The measurements were performed on a Leica DMi8 microscope with 10x air objective and equipped with a Leica MC170 HD camera with a filter setting λem = 527/30 nm upon excitation at λex = 480/40 nm) and processed with the Leica LASX software. To quantify size and number of microscopic aggregation of particles > 10 µm^2 at least 3 independently measured images were analyzed via the 3D object counter analysis tool of ImageJ, v 1.53f51. Sum–frequency generation. The SFG experiments were carried out with a femtosecond Ti: Sapphire amplified laser system (Spitfire Ace, Spectra–Physics, 800 nm, 40 fs, 1 kHz) with 5 W output power. We used 2 W to pump an optical parametric amplifier (TOPAS, light conversion) with a non–collinear difference frequency generation stage to generate broadband IR pulses. Another 1 W of the laser output passed through an etalon to generate narrowband visible pulses (10 cm^-1). The incident angles of the visible and IR beams were 36° and 41° with respect to the surface normal, respectively. The visible (13 µJ) and IR (5 µJ) pulses were overlapped spatially and temporally at the sample position. Subsequently, the generated SFG pulse was guided into a spectrograph (Acton SP 300i, Princeton Instruments), and detected with an EMCCD (Newton, Andor Technology). To avoid IR absorption of water vapor, we purged N2 for the measurement. All spectra were collected in the ssp (denoting s-, s- and p-polarized SFG, visible and IR, respectively) polarization combination. The spectra were normalized to the non–resonant signal taken from z–cut quartz after subtracting a background spectrum.
# as §1
row,Substance,ThT Cat. / ThT-Fluorescence (categorical)
1,KKWWNF,0 (ThT-inactive (N-Fold <2))
2,KVWWNF,0 (ThT-inactive (N-Fold <2))
3,RVWWNF,0 (ThT-inactive (N-Fold <2))
